Assay results: US9914730B2, “Azaquinazoline inhibitors of Atypical protein Kinase C” (Ignyta, Inc., priority 2012, dated 2018)
pIC50: −log10 of the molar value.

Biological target: T1, full-length human PKCι (Homo sapiens, UniProt P41743)
T1 construct: Recombinant, full-length human PKCι expressed in Sf21 insect cells is also commercially available; purchased; host or cells: Sf21 insect cells
T1 sequence (P41743 1-596): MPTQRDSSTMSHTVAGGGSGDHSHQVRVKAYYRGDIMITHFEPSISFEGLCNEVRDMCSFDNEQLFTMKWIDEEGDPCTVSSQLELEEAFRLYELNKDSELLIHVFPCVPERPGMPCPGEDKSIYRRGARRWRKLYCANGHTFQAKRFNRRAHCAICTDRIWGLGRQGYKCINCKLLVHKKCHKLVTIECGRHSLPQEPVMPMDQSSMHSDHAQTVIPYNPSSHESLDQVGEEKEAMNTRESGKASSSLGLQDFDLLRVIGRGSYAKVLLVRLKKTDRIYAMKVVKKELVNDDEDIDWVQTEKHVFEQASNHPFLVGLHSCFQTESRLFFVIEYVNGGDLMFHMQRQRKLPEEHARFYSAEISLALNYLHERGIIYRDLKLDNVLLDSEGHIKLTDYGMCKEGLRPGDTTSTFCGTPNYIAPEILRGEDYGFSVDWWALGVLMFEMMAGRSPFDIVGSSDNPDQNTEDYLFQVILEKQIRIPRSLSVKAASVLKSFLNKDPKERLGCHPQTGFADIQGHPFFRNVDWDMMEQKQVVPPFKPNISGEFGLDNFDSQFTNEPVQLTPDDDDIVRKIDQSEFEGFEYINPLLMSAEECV
Assay: PKCι IC50 IMAP assay, full-length PKCι at 150 μM ATP
Type: biochemical
Details: read-out: IC50 in IMAP assay against full length PKCi at 150 μM ATP
Method in brief: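 Compounds in 4% final DMSO are mixed with Sf21-derived full-length human PKCι (typically 15 pM) and 100 nM FAM-labelled pseudosubstrate peptide, then started with 150 μM ATP. Reaction runs 60 min at room temperature, is quenched with IMAP development reagent for 2 h, and fluorescence polarisation is measured to derive IC50.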

| SMILES | pIC50 |
| --- | --- |
| FC1(F)CC(Nc2cc(-c3nc(N4CCNCC4)c4c(C5CC5)cncc4n3)ccn2)C1 [Example 585, [4-(5-Cyclopropyl-4-piperazin-1-yl-pyrido[3,4-d]pyrimidin-2-yl)-pyridin-2-yl]-(3,3-difluorocyclo-butyl)-amine] | > 7.00 |
| OC1(C2CN(c3nc(-c4ccnc(Cl)c4)nc4cncc(C5CC5)c34)CCN2)CC1 (stereo not shown) [Example 562, 1-{4-[2-(2-Chloro-pyridin-4-yl)-5-cyclopropyl-pyrido[3,4-d]pyrimidin-4-yl]-piperazin-2-yl}-cyclopropanol] | 6.00 to 7.00 |
| COc1cncc2nc(-c3ccnc(Nc4cccc(F)n4)c3)nc(N3CC[C@H](CO)C3)c12 [Example 470, ((S)-1-{2-[2-(6-Fluoro-pyridin-2-ylamino)-pyridin-4-yl]-5-methoxy-pyrido[3,4-d]pyrimidin-4-yl}-pyrrolidin-3-yl)-methanol] | 5.00 to 6.00 |
| COc1cncc2nc(-c3ccnc(Nc4ccc(C(F)(F)F)cc4)c3)nc(N3CCNCC3)c12 [Example 207, [4-(5-Methoxy-4-piperazin-1-yl-pyrido[3,4-d]pyrimidin-2-yl)-pyridin-2-yl]-(4-trifluoromethyl-phenyl)-amine] | 6.00 to 7.00 |
| COc1cncc2nc(-c3ccncc3)nc(NC[C@H](Cc3ccccc3)N(C)C)c12 [Example 49, [(2S)-1-{[5-methoxy-2-(pyridin-4-yl)-pyrido[3,4-d]-pyrimidin-4-yl]-amino}-3-phenylpropan-2-yl]dimethylamine] | 5.00 to 6.00 |
| Fc1ccccc1-n1cc(Nc2cc(-c3nc(N4CCNCC4)c4c(C5CC5)cncc4n3)ccn2)cn1 [Example 817, [4-(5-Cyclopropyl-4-piperazin-1-yl-pyrido[3,4-d]pyrimidin-2-yl)-pyridin-2-yl]-[1-(2-fluoro-phenyl)-1H-pyrazol-4-yl]-amine] | > 7.00 |
| Fc1ccc(F)c(Nc2cc(-c3nc(N4CCNCC4)c4c(C5CCC5)cncc4n3)ccn2)n1 [Example 799, [4-(5-Cyclobutyl-4-piperazin-1-yl-pyrido[3,4-d]pyrimidin-2-yl)-pyridin-2-yl]-(3,6-difluoro-pyridin-2-yl)-amine] | > 7.00 |
| Fc1cc(C2CC2)cnc1Nc1cc(-c2nc(N3CCNCC3)c3c(C4CC4)cncc3n2)ccn1 [Example 812, (5-Cyclopropyl-3-fluoro-pyridin-2-yl)-[4-(5-cyclopropyl-4-piperazin-1-yl-pyrido[3,4-d]pyrimidin-2-yl)-pyridin-2-yl]-amine] | > 7.00 |
| Fc1cccnc1-c1cc2c(-c3nc(N4CCNCC4)c4c(C5CC5)cncc4n3)ccnc2[nH]1 [Example 2179, 5-Cyclopropyl-2-[2-(3-fluoro-pyridin-2-yl)-1H-pyrrolo[2,3-b]pyridin-4-yl]-4-piperazin-1-yl-pyrido[3,4-d]pyrimidine] | > 7.00 |
| C[C@@H](Nc1cc(-c2nc(N3CCNCC3)c3c(C4CC4)cncc3n2)ccn1)c1ccc(F)cc1 [Example 652] | > 7.00 |
| NC(=O)COc1ccc(Nc2cc(-c3nc(N[C@@H]4CCNC4)c4ccncc4n3)ccn2)cc1 [Example 310, 2-(4-{4-[4-((R)-Pyrrolidin-3-ylamino)-pyrido[3,4-d]pyrimidin-2-yl]-pyridin-2-ylamino}-phenoxy)-acetamide] | 6.00 to 7.00 |
| CN1CCN(c2cccc(Nc3cc(-c4nc(N5CCC(O)C(O)C5)c5c(C6CC6)cncc5n4)ccn3)c2)CC1 (single isomer, unassigned) [Example 751, (3R,4S or 3R,4S)-1-(5-Cyclopropyl-2-{2-[3-(4-methyl-piperazin-1-yl)-phenylamino]-pyridin-4-yl}-pyrido[3,4-d]pyrimidin-4-yl)-piperidine-3,4-diol] | > 7.00 |
| COc1cncc2nc(-c3ccnc(Nc4ncco4)c3)nc(N3CCNCC3)c12 [Example 220, [4-(5-Methoxy-4-piperazin-1-yl-pyrido[3,4-d]pyrimidin-2-yl)-pyridin-2-yl]-oxazol-2-yl-amine] | > 7.00 |
